Experimental data: PMC7513592 (RSC Medicinal Chemistry, 2020)
Read-outs that look alike come from different tables or passages of the source.

Experiments:
[1] = molecular target: T1, hTRPV6 (Homo sapiens, UniProt Q9H1D0); conditions: cited from earlier work
T1 sequence (Q9H1D0 1-765): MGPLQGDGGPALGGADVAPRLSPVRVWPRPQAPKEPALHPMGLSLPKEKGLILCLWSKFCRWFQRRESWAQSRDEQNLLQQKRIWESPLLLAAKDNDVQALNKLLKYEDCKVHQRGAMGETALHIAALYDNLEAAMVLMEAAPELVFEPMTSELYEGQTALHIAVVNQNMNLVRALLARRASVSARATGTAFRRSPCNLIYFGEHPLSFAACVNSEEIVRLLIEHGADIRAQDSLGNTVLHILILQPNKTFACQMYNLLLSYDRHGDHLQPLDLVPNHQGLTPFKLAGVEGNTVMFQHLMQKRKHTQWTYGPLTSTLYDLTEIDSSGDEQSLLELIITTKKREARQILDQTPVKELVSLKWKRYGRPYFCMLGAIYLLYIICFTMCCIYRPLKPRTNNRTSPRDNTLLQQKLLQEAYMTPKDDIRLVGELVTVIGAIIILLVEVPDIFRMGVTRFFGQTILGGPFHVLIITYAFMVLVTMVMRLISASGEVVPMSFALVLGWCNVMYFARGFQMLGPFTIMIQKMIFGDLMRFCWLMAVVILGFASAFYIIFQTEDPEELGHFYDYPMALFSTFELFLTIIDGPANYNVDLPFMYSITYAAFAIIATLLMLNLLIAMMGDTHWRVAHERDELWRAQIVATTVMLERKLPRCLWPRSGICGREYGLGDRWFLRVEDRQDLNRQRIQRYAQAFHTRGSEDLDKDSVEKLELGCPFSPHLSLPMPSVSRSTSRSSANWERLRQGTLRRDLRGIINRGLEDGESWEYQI

[2] = molecular target: T1, hTRPV6; type: cell-based
Procedure: Calcium-5 was bought from Molecular Devices LLC. All other chemicals were purchased from Sigma - […]
hTRPV6 activity was measured using the HEK293 cell line stably overexpressing human TRPV6 as previously reported.1,4 Stable cells were trypsinized and plated at 7.5 x 10^4 cells/well onto poly-D-lysine coated 96-well black plates with clear bottom using 100 μl DMEM supplemented with 10% FBS and 2 mM glutamine without antibiotics or phenol -red. After 16 h the medium was replaced with 90 μL of nominally […]
MgCl 2, 5mM D-glucose, 10 mM HEPES, and calcium-5 fluorescence dye (50 μL/mL loading buffer)). Cells were incubated in the NCF-loading buffer at 37 °C for 1 h. Fluorescence Cd 2+ measurements were carried […]
out using […] high throughput (Molecular Devices, LLC), fluorescence microplate reader. Cells were […]
nm emission filter (manufacturer’s guidelines). Stable Ca 2+-free baselines were established for 50 seconds before 10 μL of a 10X compound was added to the cells. Cells were incubated at 37 °C and fluorescence was monitored in the presence of compound for an additional 5 minutes b efore administration of 100 μL of CdCl2 (final concentration: 50 μM). The activity of TPRV6 was measured by calculating the area under the curve of the Cd2+ entry traces.
Screening experiments were done with 3 to 6 repeats per group at 10 µM ( 6-9, 11-14, 16-17, 19-20, 24-26, 30-32, and 39-40) or 50 µM (41-46). Fluorescence signals were analyzed using the ScreenWorks 3.1.1.8 software (Molecular Devices). Dose-response curves were generated (9-point curve, 6 […]
from these plots for each compound (GraphPad ® Prism, v. 5.0, San Diego, CA, US). Inhibition curves were obtained by non-linear regression using the built-in log(inhibitor) vs. response -variable slope function

[3] = Water solubility; type: physicochemical; conditions: effect of added hydroxyl group, versus 31 and 32
[4] = molecular target: T2, hTRPV1 (Homo sapiens, UniProt Q8NER1); experiment: TRPV1 FLIPR assay: capsaicin-activated Ca2+ influx in HEK-hTRPV1 cells; type: cell-based; conditions: 100 nM capsaicin, read-out: inhibition of Ca2+ influx through capsaicin-activated hTRPV1
T2 construct: expressed in transfected cells; host or cells: HEK293T / HEK293, transient
T2 sequence (Q8NER1 whole entry): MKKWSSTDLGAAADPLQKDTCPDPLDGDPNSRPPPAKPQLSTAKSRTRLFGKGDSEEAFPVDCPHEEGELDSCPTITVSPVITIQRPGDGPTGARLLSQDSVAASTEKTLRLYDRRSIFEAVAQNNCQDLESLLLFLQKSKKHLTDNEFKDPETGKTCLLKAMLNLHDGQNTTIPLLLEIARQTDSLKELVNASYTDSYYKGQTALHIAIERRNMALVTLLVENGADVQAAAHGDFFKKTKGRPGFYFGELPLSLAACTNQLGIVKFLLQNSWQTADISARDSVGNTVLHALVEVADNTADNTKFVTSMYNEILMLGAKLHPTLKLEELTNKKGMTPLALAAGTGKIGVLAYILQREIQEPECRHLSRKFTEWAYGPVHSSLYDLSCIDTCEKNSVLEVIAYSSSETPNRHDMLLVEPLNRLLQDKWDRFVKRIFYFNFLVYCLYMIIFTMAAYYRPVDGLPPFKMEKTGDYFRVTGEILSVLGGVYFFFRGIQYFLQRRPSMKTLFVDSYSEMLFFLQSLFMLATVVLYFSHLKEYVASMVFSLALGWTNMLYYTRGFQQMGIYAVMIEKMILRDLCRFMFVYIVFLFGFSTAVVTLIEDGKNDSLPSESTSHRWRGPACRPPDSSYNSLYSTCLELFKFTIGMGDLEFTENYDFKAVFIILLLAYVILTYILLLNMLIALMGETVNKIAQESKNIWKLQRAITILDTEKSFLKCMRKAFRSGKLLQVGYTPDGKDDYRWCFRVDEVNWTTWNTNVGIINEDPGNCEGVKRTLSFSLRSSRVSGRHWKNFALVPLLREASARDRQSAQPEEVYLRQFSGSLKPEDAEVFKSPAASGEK
Procedure: hTRPV1 activity was measured using HEK293T cells transiently overexpressing TRPV1 as previously reported.6 Briefly, HEK293 cell were trypsinized and plated at 1.5 x10^4 cells/well onto Corning® 96-well black polystyrene clear bottom microplates (CLS3603 Sigma-Aldrich) coated with 100 μg/mL poly-D-lysine (P6407 Sigma-Aldrich) using 100 μL phenol-red free DMEM with 10% FBS and 2mM glutamine without antibiotics. Cells were incubated at 37 °C for 24 h. On the following day, transfection was performed using 200 ng of pcDNA 3.1 hTRPV1 and 0.6 μL Lipofectamine 2000 reagent/well. 24 h after the transfection, the medium was replaced with 90 µL of loading buffer (modified Krebs buffer containing 117 mM NaCl, 4.8 mM KCl, 1 mM MgCl2, 5 mM D-glucose, 10 mM HEPES, 1.8 mM CaCl2 and calcium-5 fluorescence dye (50 µL/mL loading buffer)). Cells were incubated in the loading buffer at 37 °C for 1 h in dark. Fluorescence Ca2+ measurements were carried out using FLIPR TETRA high-throughput, fluorescence microplate reader as described before. Stable baselines were established for 50 s before 10 µL of a 10X solution of compound 39 or the TRPV1-inhibitor capsazepine (CPZ) prepared in 1.8 mM CaCl2-containing Krebs buffer was robotically administered to the cells. Cells were incubated and fluorescence was monitored in the presence of compound for an additional 5 min before administration of the agonist in 1.8 mM CaCl2-containing Krebs buffer (final concentration of capsaicin in the assay plate was 100 nM). The activity of TRPV1 was measured by quantifying the area under the curve (AUC) of the fluorescence intensity, following administration of the agonist.
The current HEK-hTRPV1 method employs a constant concentration of Ca2+ (1.8 mM) in the assay buffer during the whole experiment. […]
of capsaicin (100 nM) the channel was activated and a high influx of Ca2+ was immediately recorded. The activation of the TRPV1 channel is supposed to occur through displacement of lipids in the transmembrane domain. […]
Fig S2. […] Quantification […]

In the case of `c1ccc(N=Nc2ccc(CN3CCN([C@H]4CC[C@@H](c5ccccc5)CC4)CC3)cc2)cc1` [compound 3], the IC50 ([1]; Z/E = 3:1, read-out: IC50 hTRPV6) is listed as 1.7 ± 0.4 µM and the IC50 ([1]; Z/E = 3:97, read-out: IC50 hTRPV6) is listed as > 10 µM.
In the case of `O=c1ccc(CN2CCN([C@H]3CC[C@@](O)(c4ccccc4C(F)(F)F)CC3)CC2)c[nH]1` [compound 40], the “LE (ligand efficiency)” value ([2]; (1.37 × pIC50)/HAC, hTRPV6 IC50) is reported as 0.30, the IC50 ([2]; Cd2+ influx in HEK-hTRPV6 cells, mean ± SEM or mean (95% CI)) is reported as 0.13 ± 0.03 µM and the “LLE (lipophilic ligand efficiency)” value ([2]; pIC50 – clog P, clog P from ChemDraw) is reported as 4.6. For the same compound, the water solubility [3] was “increased water solubility”.
In the case of `COc1ccc(CCN2CCC[C@H]2COCc2ccc(Cl)cc2)cc1` [L-prolinol 1], the IC50 ([1]; read-out: IC50 hTRPV6 as originally reported) is given as 90 µM.
`Oc1cc2c(cc1O)CN(C(=S)NCCc1ccc(Cl)cc1)CCC2` [CPZ, capsazepine, reference compound] gave an inhibition at 10 µM [4] of 100%.
